{
  "source": "PubChem BioAssay AID248",
  "about": "(DTP/NCI, 2004)",
  "system": "L1210 leukemia ip in BDF1 mice, survival T/C",
  "test": "NCI In Vivo Anticancer Drug Screen. Data for tumor model L1210 Leukemia (intraperitoneal) in B6D2F1 (BDF1) mice",
  "conditions": "endpoint: mean survival time, higher = longer survival",
  "method_in_brief": "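Tumor cells were implanted, animals were treated, and survival was followed. The result divides the treated measurement by the vehicle-control measurement.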",
  "key": {"[1]": {"conditions": "dose: 12.5 mg/kg/injection, schedule: Q01DX009 (ip), vehicle: Klucel (hydroxypropylcellulose) (HPC)"}, "[2]": {"conditions": "dose: 100.0 mg/kg/injection, schedule: Q01DX001 (ip), vehicle: saline"}, "[3]": {"conditions": "dose: 200.0 mg/kg/injection, schedule: Q01DX001 (ip), vehicle: saline"}, "[4]": {"conditions": "dose: 100.0 mg/kg/injection, schedule: Q04DX003 (ip), vehicle: Klucel (hydroxypropylcellulose) (HPC)"}, "[5]": {"conditions": "dose: 200.0 mg/kg/injection, schedule: Q04DX003 (ip), vehicle: Klucel (hydroxypropylcellulose) (HPC)"}, "[6]": {"conditions": "dose: 400.0 mg/kg/injection, schedule: Q04DX003 (ip), vehicle: Klucel (hydroxypropylcellulose) (HPC)"}, "[7]": {"conditions": "dose: 400.0 mg/kg/injection, schedule: Q01DX001 (ip), vehicle: saline"}},
  "note": "Several values for one entry are separate records, joined by “and”; a condition that tells them apart may be missing. Identical values can stand only once. Inconclusive results and toxic doses are left out.",
  "data": [
    {"compound": "CCCC[P+](c1ccccc1)(c1ccccc1)c1ccccc1", "values": [
      {"measurement": "T/C", "setting": "dose: 6.25 mg/kg/injection, schedule: Q04DX003 (ip), vehicle: saline", "result": "107 % of control"},
      {"measurement": "T/C", "setting": "[1]", "result": "114 % of control"},
      {"measurement": "T/C", "setting": "dose: 12.5 mg/kg/injection, schedule: Q01DX009 (ip), vehicle: saline", "result": "113 % of control"},
      {"measurement": "T/C", "setting": "dose: 12.5 mg/kg/injection, schedule: Q04DX003 (ip), vehicle: saline", "result": "107 % of control"},
      {"measurement": "T/C", "setting": "dose: 25.0 mg/kg/injection, schedule: Q01DX009 (ip), vehicle: Klucel (hydroxypropylcellulose) (HPC)", "result": "112 % of control"},
      {"measurement": "T/C", "setting": "dose: 25.0 mg/kg/injection, schedule: Q01DX009 (ip), vehicle: saline", "result": "115 % of control"},
      {"measurement": "T/C", "setting": "dose: 25.0 mg/kg/injection, schedule: Q04DX003 (ip), vehicle: saline", "result": "105 % of control"},
      {"measurement": "T/C", "setting": "dose: 50.0 mg/kg/injection, schedule: Q01DX009 (ip), vehicle: Klucel (hydroxypropylcellulose) (HPC)", "result": "109 % of control"},
      {"measurement": "T/C", "setting": "dose: 50.0 mg/kg/injection, schedule: Q04DX003 (ip), vehicle: saline", "result": "104 % of control"}
    ]},
    {"compound": "Nc1nnnc2c1ncn2C1OC(CO)C(O)C1O", "note": "(stereo unspecified)", "values": [
      {"measurement": "T/C", "setting": "dose: 1.6 mg/kg/injection, schedule: Q01DX009 (ip), vehicle: saline", "result": "120 % of control"},
      {"measurement": "T/C", "setting": "dose: 2.8 mg/kg/injection, schedule: Q01DX009 (ip), vehicle: saline", "result": "108 % of control"},
      {"measurement": "T/C", "setting": "dose: 4.8 mg/kg/injection, schedule: Q01DX009 (ip), vehicle: saline", "result": "117 % of control"},
      {"measurement": "T/C", "setting": "dose: 9.5 mg/kg/injection, schedule: Q01DX001 (ip), vehicle: saline", "result": "106 % of control"},
      {"measurement": "T/C", "setting": "dose: 12.5 mg/kg/injection, schedule: Q04DX002 (ip), vehicle: saline", "result": "92 % of control"},
      {"measurement": "T/C", "setting": "dose: 14.0 mg/kg/injection, schedule: Q01DX009 (ip), vehicle: saline", "result": "123 % of control"},
      {"measurement": "T/C", "setting": "dose: 19.0 mg/kg/injection, schedule: Q01DX001 (ip), vehicle: saline", "result": "103 % of control and 117 % of control"},
      {"measurement": "T/C", "setting": "dose: 25.0 mg/kg/injection, schedule: Q04DX002 (ip), vehicle: saline", "result": "100 % of control"},
      {"measurement": "T/C", "setting": "dose: 38.0 mg/kg/injection, schedule: Q01DX001 (ip), vehicle: saline", "result": "106 % of control and 120 % of control"},
      {"measurement": "T/C", "setting": "dose: 38.0 mg/kg/injection, schedule: Q01DX009 (ip), vehicle: saline", "result": "105 % of control"},
      {"measurement": "T/C", "setting": "dose: 50.0 mg/kg/injection, schedule: Q04DX002 (ip), vehicle: saline", "result": "103 % of control"},
      {"measurement": "T/C", "setting": "dose: 75.0 mg/kg/injection, schedule: Q01DX001 (ip), vehicle: saline", "result": "106 % of control"}
    ]},
    {"compound": "Nc1nc(N)c(N=Nc2ccc(S(=O)(=O)Nc3ccccn3)cc2)c(N)n1", "values": [
      {"measurement": "T/C", "setting": "[2]", "result": "101 % of control"},
      {"measurement": "T/C", "setting": "[3]", "result": "95 % of control"}
    ]},
    {"compound": "COc1ccc(N=Cc2ccc(Cl)cc2)cc1C(F)(F)F", "values": [
      {"measurement": "T/C", "setting": "[4]", "result": "98 % of control"},
      {"measurement": "T/C", "setting": "[5]", "result": "89 % of control"},
      {"measurement": "T/C", "setting": "[6]", "result": "104 % of control"}
    ]},
    {"compound": "CCC1CN1CC1CO1", "note": "(stereo unspecified)", "values": [
      {"measurement": "T/C", "setting": "dose: 4.0 mg/kg/injection, schedule: Q01DX Z (ip), vehicle: saline", "result": "101 % of control"},
      {"measurement": "T/C", "setting": "dose: 7.0 mg/kg/injection, schedule: Q01DX Z (ip), vehicle: saline", "result": "106 % of control"},
      {"measurement": "T/C", "setting": "dose: 10.0 mg/kg/injection, schedule: Q01DX Z (ip), vehicle: saline", "result": "95 % of control"},
      {"measurement": "T/C", "setting": "dose: 33.0 mg/kg/injection, schedule: Q01DX Z (ip), vehicle: saline", "result": "158 % of control and 196 % of control"},
      {"measurement": "T/C", "setting": "dose: 50.0 mg/kg/injection, schedule: Q01DX Z (ip), vehicle: saline", "result": "123 % of control and 183 % of control and 218 % of control"},
      {"measurement": "T/C", "setting": "dose: 75.0 mg/kg/injection, schedule: Q01DX Z (ip), vehicle: saline", "result": "120 % of control"}
    ]},
    {"compound": "O=C1c2ccccc2-c2cccc3ccc(-c4ccccc4)c1c23", "values": [
      {"measurement": "T/C", "setting": "dose: 75.0 mg/kg/injection, schedule: Q01DX009 (ip), vehicle: Klucel (hydroxypropylcellulose) (HPC)", "result": "105 % of control"},
      {"measurement": "T/C", "setting": "[4]", "result": "96 % of control"},
      {"measurement": "T/C", "setting": "dose: 150.0 mg/kg/injection, schedule: Q01DX009 (ip), vehicle: Klucel (hydroxypropylcellulose) (HPC)", "result": "97 % of control"},
      {"measurement": "T/C", "setting": "[5]", "result": "96 % of control"},
      {"measurement": "T/C", "setting": "dose: 300.0 mg/kg/injection, schedule: Q01DX009 (ip), vehicle: Klucel (hydroxypropylcellulose) (HPC)", "result": "101 % of control"},
      {"measurement": "T/C", "setting": "[6]", "result": "100 % of control"}
    ]},
    {"compound": "CC1CCc2nc3ccccc3nc21", "note": "(stereo unspecified)", "values": [
      {"measurement": "T/C", "setting": "[2]", "result": "91 % of control"},
      {"measurement": "T/C", "setting": "[3]", "result": "97 % of control"},
      {"measurement": "T/C", "setting": "[7]", "result": "91 % of control"}
    ]},
    {"compound": "O=C1C=Cc2cccc3cccc1c23", "values": [
      {"measurement": "T/C", "setting": "[4]", "result": "98 % of control"},
      {"measurement": "T/C", "setting": "[5]", "result": "112 % of control"}
    ]},
    {"compound": "Cc1ccc(C)c(NC(=O)OC/C=C/c2ccccc2)c1", "values": [
      {"measurement": "T/C", "setting": "dose: 100.0 mg/kg/injection, schedule: Q01DX009 (ip), vehicle: Klucel (hydroxypropylcellulose) (HPC)", "result": "88 % of control"},
      {"measurement": "T/C", "setting": "dose: 200.0 mg/kg/injection, schedule: Q01DX009 (ip), vehicle: Klucel (hydroxypropylcellulose) (HPC)", "result": "86 % of control"},
      {"measurement": "T/C", "setting": "dose: 400.0 mg/kg/injection, schedule: Q01DX009 (ip), vehicle: Klucel (hydroxypropylcellulose) (HPC)", "result": "86 % of control"}
    ]},
    {"compound": "OCCN(CCO)c1nnc(-c2ccccc2)o1", "values": [
      {"measurement": "T/C", "setting": "[2]", "result": "102 % of control"},
      {"measurement": "T/C", "setting": "[3]", "result": "94 % of control and 90 % of control"},
      {"measurement": "T/C", "setting": "[7]", "result": "101 % of control and 91 % of control"}
    ]},
    {"compound": "c1ccc(-c2n[nH]c(-c3ccccn3)n2)nc1", "values": [
      {"measurement": "T/C", "setting": "dose: 6.25 mg/kg/injection, schedule: Q01DX009 (ip), vehicle: Klucel (hydroxypropylcellulose) (HPC)", "result": "97 % of control"},
      {"measurement": "T/C", "setting": "[1]", "result": "112 % of control"}
    ]},
    {"compound": "CC([NH-])CO.CC([NH-])CO.[Cu+2]", "note": "(stereo unspecified)", "values": [
      {"measurement": "T/C", "setting": "dose: 12.5 mg/kg/injection, schedule: Q01DX001 (ip), vehicle: saline", "result": "97 % of control"},
      {"measurement": "T/C", "setting": "dose: 25.0 mg/kg/injection, schedule: Q01DX001 (ip), vehicle: saline", "result": "108 % of control"}
    ]},
    {"compound": "CCCCCOP(=O)(Cc1ccc(Cl)cc1)OCCCCC", "values": [
      {"measurement": "T/C", "setting": "[4]", "result": "87 % of control"},
      {"measurement": "T/C", "setting": "[5]", "result": "90 % of control"},
      {"measurement": "T/C", "setting": "[6]", "result": "100 % of control"}
    ]}
  ]
}
